# Target: T1, F508del (Homo sapiens, UniProt P13569, DEL508-508)
# T1 construct: expressed in transfected cells
# Test: Protocol 2: FRET membrane potential optical assay (VIPR), identification of correction compounds
# Type: cell-based
# Conditions: F508del CFTR modulator activity; compounds of Table 1; read-out: EC30
# In short: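 Single-addition HTS format: F508del-expressing NIH3T3 cells pre-incubated 16 hrs at 37° C. ± compound, with 27° C. culture as positive control. Channel activation by forskolin 10 μM and genistein 20 μM upon switch to gluconate bath, pH 7.4; read-out is FRET-based depolarization signal.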
# T1 sequence (P13569 with tags, fused parts or gaps DEL508-508): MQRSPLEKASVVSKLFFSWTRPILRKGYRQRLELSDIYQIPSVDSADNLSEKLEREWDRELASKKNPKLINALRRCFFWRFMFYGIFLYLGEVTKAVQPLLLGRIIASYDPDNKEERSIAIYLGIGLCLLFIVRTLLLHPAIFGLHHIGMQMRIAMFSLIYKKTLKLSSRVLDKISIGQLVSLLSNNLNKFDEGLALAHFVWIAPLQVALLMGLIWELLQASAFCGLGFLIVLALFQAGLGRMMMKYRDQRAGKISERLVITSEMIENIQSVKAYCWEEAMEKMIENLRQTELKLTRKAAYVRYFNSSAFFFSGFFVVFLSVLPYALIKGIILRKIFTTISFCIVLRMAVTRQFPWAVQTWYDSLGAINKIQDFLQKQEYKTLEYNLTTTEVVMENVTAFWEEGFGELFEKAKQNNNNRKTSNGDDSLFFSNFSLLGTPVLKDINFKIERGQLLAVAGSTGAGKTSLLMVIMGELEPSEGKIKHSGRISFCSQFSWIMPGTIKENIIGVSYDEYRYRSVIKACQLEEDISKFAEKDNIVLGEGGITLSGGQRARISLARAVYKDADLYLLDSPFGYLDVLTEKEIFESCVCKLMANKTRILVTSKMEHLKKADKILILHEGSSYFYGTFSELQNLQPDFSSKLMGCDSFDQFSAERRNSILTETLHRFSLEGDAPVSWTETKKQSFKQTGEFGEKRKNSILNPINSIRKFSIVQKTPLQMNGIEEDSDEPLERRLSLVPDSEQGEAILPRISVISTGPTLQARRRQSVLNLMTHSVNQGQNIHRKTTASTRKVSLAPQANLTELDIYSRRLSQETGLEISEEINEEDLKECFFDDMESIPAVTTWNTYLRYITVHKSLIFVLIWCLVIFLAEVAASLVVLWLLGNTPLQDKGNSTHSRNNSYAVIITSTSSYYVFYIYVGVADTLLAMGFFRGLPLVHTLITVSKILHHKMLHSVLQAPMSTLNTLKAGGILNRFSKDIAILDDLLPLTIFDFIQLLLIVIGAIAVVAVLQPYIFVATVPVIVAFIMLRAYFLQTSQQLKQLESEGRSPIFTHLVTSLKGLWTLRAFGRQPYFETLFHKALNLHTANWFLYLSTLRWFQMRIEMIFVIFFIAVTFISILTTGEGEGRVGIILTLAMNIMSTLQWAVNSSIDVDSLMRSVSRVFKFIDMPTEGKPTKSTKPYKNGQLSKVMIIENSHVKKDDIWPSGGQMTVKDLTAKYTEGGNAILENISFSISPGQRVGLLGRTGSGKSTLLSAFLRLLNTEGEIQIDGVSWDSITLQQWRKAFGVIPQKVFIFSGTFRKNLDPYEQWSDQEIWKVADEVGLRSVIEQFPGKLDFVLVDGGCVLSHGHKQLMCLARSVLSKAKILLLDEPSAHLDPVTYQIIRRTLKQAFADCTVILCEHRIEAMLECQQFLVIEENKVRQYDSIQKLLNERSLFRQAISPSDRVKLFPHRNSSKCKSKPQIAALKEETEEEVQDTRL
row,EC30 [nM],Compound
1,< 3000,"COc1cc(F)cc(-c2cnc(N3CC(C)CC3(C)C)c(C(=O)NS(=O)(=O)c3cccc(N)n3)c2)c1 (stereo not shown) [Compound 2431, N-[(6-amino-2-pyridyl)sulfonyl]-5-(3-fluoro-5-methoxy-phenyl)-2-(2,2,4-trimethylpyrrolidin-1-yl)pyridine-3-carboxamide]"
2,3000 to 10000,"CC(=O)Nc1cccc(Oc2cccc(S(=O)(=O)NC(=O)c3cccnc3N3CC(C)CC3(C)C)n2)c1 (stereo not shown) [Compound 2433, N—[[6-(3-acetamidophenoxy)-2-pyridyl]sulfonyl]-2-(2,2,4-trimethylpyrrolidin-1-yl)pyridine-3-carboxamide]"
3,< 3000,"CC1CN(c2ncccc2C(=O)NS(=O)(=O)c2cccc(OCC3(C)CC3)n2)C(C)(C)C1 (stereo not shown) [Compound 2434, N—[[6-[(1-methylcyclopropyl)methoxy]-2-pyridyl]sulfonyl]-2-(2,2,4-trimethylpyrrolidin-1-yl)pyridine-3-carboxamide]"
4,< 3000,"C[C@@H]1CN(c2nc(-c3ccc(F)cc3)ccc2C(=O)NS(=O)(=O)c2cccnc2N)C(C)(C)C1 [Compound 2435, N-[(2-amino-3-pyridyl)sulfonyl]-6-(4-fluorophenyl)-2-[(4S)-2,2,4-trimethylpyrrolidin-1-yl]pyridine-3-carboxamide]"
5,< 3000,"COc1cccc(-c2ccc(C(=O)NS(=O)(=O)c3cccnc3N)c(N3C[C@@H](C)CC3(C)C)n2)c1OC [Compound 2436, N-[(2-amino-3-pyridyl)sulfonyl]-6-(2,3-dimethoxyphenyl)-2-[(4S)-2,2,4-trimethylpyrrolidin-1-yl]pyridine-3-carboxamide]"
6,< 3000,"C[C@@H]1CN(c2nc(-c3ccccc3C#N)ccc2C(=O)NS(=O)(=O)c2cccnc2N)C(C)(C)C1 [Compound 2437, N-[(2-amino-3-pyridyl)sulfonyl]-6-(2-cyanophenyl)-2-[(4S)-2,2,4-trimethylpyrrolidin-1-yl]pyridine-3-carboxamide]"
7,< 3000,"Cc1ccc(-c2ccc(C(=O)NS(=O)(=O)c3ccc[nH]c3=O)c(N3C[C@@H](C)CC3(C)C)n2)cc1 [Compound 2438, N-[(2-oxo-1H-pyridin-3-yl)sulfonyl]-6-(p-tolyl)-2-[(4S)-2,2,4-trimethylpyrrolidin-1-yl]pyridine-3-carboxamide]"
8,< 3000,"CC1CN(c2ncccc2C(=O)NS(=O)(=O)c2cccc(N[C@H]3CC[C@H](NC(=O)OC(C)(C)C)CC3)n2)C(C)(C)C1 (stereo partly shown) [Compound 2439, tert-butyl N—[4-[[6-[[2-(2,2,4-trimethylpyrrolidin-1-yl)pyridine-3-carbonyl]sulfamoyl]-2-pyridyl]amino]cyclohexyl]carbamate]"
9,< 3000,"COc1cc(-c2ccc(C(=O)NS(=O)(=O)c3ccc[nH]c3=O)c(N3C[C@@H](C)CC3(C)C)n2)ccc1C [Compound 2440, 6-(3-methoxy-4-methyl-phenyl)-N-[(2-oxo-1H-pyridin-3-yl)sulfonyl]-2-[(4S)-2,2,4-trimethylpyrrolidin-1-yl]pyridine-3-carboxamide]"
10,3000 to 10000,"CC1CN(c2ncccc2C(=O)NS(=O)(=O)c2cccc(Oc3ccc(-n4ccnc4)cc3)n2)C(C)(C)C1 (stereo not shown) [Compound 2441, N—[[6-(4-imidazol-1-ylphenoxy)-2-pyridyl]sulfonyl]-2-(2,2,4-trimethylpyrrolidin-1-yl)pyridine-3-carboxamide]"
11,3000 to 10000,"COC(=O)C1CCN(c2cccc(S(=O)(=O)NC(=O)c3cccnc3N3CC(C)CC3(C)C)n2)CC1 (stereo not shown) [Compound 2442, methyl 1-[6-[[2-(2,2,4-trimethylpyrrolidin-1-yl)pyridine-3-carbonyl]sulfamoyl]-2-pyridyl]piperidine-4-carboxylate]"
12,< 3000,"CC1CN(c2ncccc2C(=O)NS(=O)(=O)c2cccc(Oc3cccc(N(C)C)c3)n2)C(C)(C)C1 (stereo not shown) [Compound 2443, N—[[6-[3-(dimethylamino)phenoxy]-2-pyridyl]sulfonyl]-2-(2,2,4-trimethylpyrrolidin-1-yl)pyridine-3-carboxamide]"
13,3000 to 10000,"COc1ncc(-c2ccc(C(=O)NS(=O)(=O)c3ccc[nH]c3=O)c(N3C[C@@H](C)CC3(C)C)n2)cc1F [Compound 2444, 6-(5-fluoro-6-methoxy-3-pyridyl)-N-[(2-oxo-1H-pyridin-3-yl)sulfonyl]-2-[(4S)-2,2,4-trimethylpyrrolidin-1-yl]pyridine-3-carboxamide]"
14,< 3000,"C[C@@H]1CN(c2nc(-c3ccccc3)ccc2C(=O)NS(=O)(=O)c2ccc[nH]c2=O)C(C)(C)C1 [Compound 2445, N-[(2-oxo-1H-pyridin-3-yl)sulfonyl]-6-phenyl-2-[(4S)-2,2,4-trimethylpyrrolidin-1-yl]pyridine-3-carboxamide]"
15,< 3000,"C[C@@H]1CN(c2nc(-c3cccc(F)c3O)ccc2C(=O)NS(=O)(=O)c2cccnc2N)C(C)(C)C1 [Compound 2446, N-[(2-amino-3-pyridyl)sulfonyl]-6-(3-fluoro-2-hydroxy-phenyl)-2-[(4S)-2,2,4-trimethylpyrrolidin-1-yl]pyridine-3-carboxamide]"
16,< 3000,"C[C@@H]1CN(c2nc(-c3ccc(F)cc3F)ccc2C(=O)NS(=O)(=O)c2cccnc2N)C(C)(C)C1 [Compound 2447, N-[(2-amino-3-pyridyl)sulfonyl]-6-(2,4-difluorophenyl)-2-[(4S)-2,2,4-trimethylpyrrolidin-1-yl]pyridine-3-carboxamide]"
17,< 3000,"CC1CN(c2ncccc2C(=O)NS(=O)(=O)c2cccc(Nc3cnc4ccccc4c3)n2)C(C)(C)C1 (stereo not shown) [Compound 2449, N—[[6-(3-quinolylamino)-2-pyridyl]sulfonyl]-2-(2,2,4-trimethylpyrrolidin-1-yl)pyridine-3-carboxamide]"
18,< 3000,"COc1ccc(-c2ccc(C(=O)NS(=O)(=O)c3cccnc3N)c(N3C[C@@H](C)CC3(C)C)n2)c(C)c1C [Compound 2450, N-[(2-amino-3-pyridyl)sulfonyl]-6-(4-methoxy-2,3-dimethyl-phenyl)-2-[(4S)-2,2,4-trimethylpyrrolidin-1-yl]pyridine-3-carboxamide]"
19,< 3000,"CC1CN(c2ncccc2C(=O)NS(=O)(=O)c2cccc(OCCC3CCNCC3)n2)C(C)(C)C1 (stereo not shown) [Compound 2452, N—[[6-[2-(4-piperidyl)ethoxy]-2-pyridyl]sulfonyl]-2-(2,2,4-trimethylpyrrolidin-1-yl)pyridine-3-carboxamide]"
20,< 3000,"CC1CN(c2ncccc2C(=O)NS(=O)(=O)c2cccc(N3CCC(F)CC3)n2)C(C)(C)C1 (stereo not shown) [Compound 2453, N—[[6-(4-fluoro-1-piperidyl)-2-pyridyl]sulfonyl]-2-(2,2,4-trimethylpyrrolidin-1-yl)pyridine-3-carboxamide]"
21,3000 to 10000,"COc1ncccc1-c1ccc(C(=O)NS(=O)(=O)c2ccc[nH]c2=O)c(N2C[C@@H](C)CC2(C)C)n1 [Compound 2454, 6-(2-methoxy-3-pyridyl)-N-[(2-oxo-1H-pyridin-3-yl)sulfonyl]-2-[(4S)-2,2,4-trimethylpyrrolidin-1-yl]pyridine-3-carboxamide]"

row,Compound,EC30 [nM]
1,"CC(C)COc1ccccc1-c1ccc(C(=O)NS(=O)(=O)c2cccnc2N)c(N2C[C@@H](C)CC2(C)C)n1 [Compound 2448, N-[(2-amino-3-pyridyl)sulfonyl]-6-(2-isobutoxyphenyl)-2-[(4S)-2,2,4-trimethylpyrrolidin-1-yl]pyridine-3-carboxamide]",< 3000

# — patent US10758534B2 (Vertex Pharmaceuticals Incorporated, priority 2014, dated 2020)
